Results on two compounds are retold here after US20250381245A1, “METHODS AND COMPOSITIONS OF TREATING CANCER BY MODULATING PALMITOYLATION OF FLOTILLIN-1” (BOARD OF REGENTS, THE UNIVERSITY OF TEXAS SYSTEM, priority 2022, published 2025).

This assay deals with flotillin-1. Kind of assay: Flotillin-1 protein level by western blot after chemical inhibition of palmitoylation in triple-negative breast cancer cell lines. In kind it is cell-based. The note with it: MDA-MB-231 and SUM 159 triple-negative breast cancer cell lines. The protocol:
MDA-MB-231 and SUM 159 triple-negative breast cancer cell lines were treated with drug vehicle (DMSO), (B, C) global palmitoylation inhibitor (2-BP), or 2-BP+a proteasomal inhibitor (MG-132).
Protein lysates were lysed in a 1% SDS lysis buffer containing 2 mM EDTA and 20 mM Tris-HCl (PH 6.8) for 5 minutes and scraped into 1.5 mL collection tubes. Lysates were sonicated using horn sonification for 3×20 seconds each and allowed to recover on ice in between each sonification. Lysates were centrifuged for 5 minutes at 10,000 rpm at 4° C. and supernatants subjected to protein quantification by BCA assay. Lysates were then diluted to 50 ug, resolubilized in 4×SDS loading buffer (200 mM Tris-HCL, 6.8 PH, 8% SDS, 40% glycerol, 0.4% bromophenol blue) and boiled at 95° C. for 7 minutes. Boiled samples were resolved on a 10% SDS-PAGE gel and transferred to a nitrocellulose membrane. Transferred membranes were blocked for 1 hour in 5% non-fat dairy milk (NFDM). Blocked membranes were washed with 1× tris buffer saline+0.1% tween-20 (TBST) prior to the addition of the diluted primary antibody overnight at 4° C. The following day, membranes were washed thrice with TBST for 5 minutes each prior to the addition of rabbit (1:3000) (Cell Signaling Technologies, #7074) or mouse IgG (1:5000) secondary horse radish peroxidase (HRP) conjugated antibody diluted in 5% NFDM for 1 hour. […]
A general note: Immunoblotting shows a protein as a band on a membrane.

Residues, ends and D or L forms follow the SMILES beside them. *: point of attachment. Cbz = O=C(OCc1ccccc1)*

Take `CCCCCCCCCCCCCCC(Br)C(=O)O` (centres unmarked) [2-BP, 2-bromopalmitate]: the flotillin-1 protein levels result (global palmitoylation inhibitor vs drug vehicle (DMSO)) is “significantly reduces flotillin-1 protein levels”. As for `CC(C)C[C@@H](C=O)NC(=O)[C@H](CC(C)C)NC(=O)[C@H](CC(C)C)NC(=O)OCc1ccccc1` [MG-132] (Cbz-Leu-Leu-Leu-aldehyde), the “flotillin-1 protein levels upon proteasomal inhibition” value (2-BP + proteasomal inhibitor (MG-132) vs 2-BP alone) was “restored”.
